Legend:
recombinant rat TrxR = molecular target: T1, recombinant rat TrxR (Rattus norvegicus, UniProt O89049); assay: in vitro TrxR DTNB reduction assay; format: biochemical; settings: 30 min incubation, 100 nM recombinant rat TrxR, 200 μM NADPH, read-out: TrxR inhibition IC50
T1 construct: made in house
T1 sequence (O89049 1-499): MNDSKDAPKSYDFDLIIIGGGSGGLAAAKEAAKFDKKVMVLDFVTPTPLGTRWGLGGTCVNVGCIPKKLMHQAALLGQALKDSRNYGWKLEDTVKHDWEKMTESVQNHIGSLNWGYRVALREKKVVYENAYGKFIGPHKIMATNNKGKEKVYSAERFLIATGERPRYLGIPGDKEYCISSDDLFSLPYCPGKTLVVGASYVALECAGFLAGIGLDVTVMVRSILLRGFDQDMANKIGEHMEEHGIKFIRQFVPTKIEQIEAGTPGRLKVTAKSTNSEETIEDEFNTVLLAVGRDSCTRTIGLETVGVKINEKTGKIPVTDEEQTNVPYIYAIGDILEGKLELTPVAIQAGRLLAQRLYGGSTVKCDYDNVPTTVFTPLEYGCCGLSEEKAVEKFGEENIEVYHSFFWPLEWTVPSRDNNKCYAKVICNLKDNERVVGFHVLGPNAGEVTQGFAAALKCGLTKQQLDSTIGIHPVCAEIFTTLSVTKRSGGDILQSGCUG
Method: In a volume of 100 μl of 50 mM Tris-HCl pH 7.5, 2 mM EDTA buffer (TE buffer), compounds of concentrations 1-100 μM were incubated with 100 nM recombinant rat TrxR and 200 μM NADPH at room temperature in 96-well plates for 30 and 60 min. The incubation was terminated by addition of 100 μl per well of 10 mM DTNB, 200 μM NADPH solution in TE buffer and immediately followed by measurement of linear increase of absorbance at 412 nm for the initial 2 min using the VersaMax microplate reader (Molecular Devices). The results were expressed as % of TrxR activity of drug-treated sample over that of DMSO control. The 50% inhibition concentration (IC50) values were calculated.

bovine GPx = molecular target: T2, bovine GPx (Bos taurus, UniProt P00435); assay: in vitro bovine GPx activity assay; format: biochemical; settings: 60 min incubation, 1-100 μM, 100 nM bovine GPx
T2 construct: purchased Sigma
T2 sequence (P00435 1-205): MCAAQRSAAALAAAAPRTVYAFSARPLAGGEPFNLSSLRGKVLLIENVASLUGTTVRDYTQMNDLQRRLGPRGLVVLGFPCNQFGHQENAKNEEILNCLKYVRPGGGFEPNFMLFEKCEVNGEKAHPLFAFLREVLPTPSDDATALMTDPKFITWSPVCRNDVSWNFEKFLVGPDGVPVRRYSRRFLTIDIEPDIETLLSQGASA
Method: For determination of in vitro bovine GPx activity, compounds of concentrations 1-100 μM were incubated with 100 nM bovine GPx, 20 nM yeast GR, 1 mM GSH and 200 μM NADPH in a volume of 100 μl phosphate buffer (0.1 M sodium phosphate, 2 mM EDTA pH 7.5) for 1 h at room temperature. H2O2 solution in phosphate buffer was added to initiate the reaction (final concentration 1.5 mM). NADPH consumption was monitored at 340 nm using the VersaMax microplate reader. The cellular GPx activity was determined similarly except lysates of HCT 116 and MCF-7 cells (25 μg protein) were used instead of bovine GPx. The results were calculated based on decrease in absorbance in the initial 3 min and presented as % of GPx activity of drug-treated sample over that of DMSO-treated sample.

yeast GR = molecular target: T3, yeast GR (Saccharomyces cerevisiae, UniProt P41921); assay: in vitro yeast GR activity (glutathione reduction assay); format: biochemical; settings: 60 min incubation, 1-100 μM, 20 nM yeast GR, 200 μM NADPH
T3 construct: purchased Sigma
T3 sequence (P41921 17-483 limits assumed): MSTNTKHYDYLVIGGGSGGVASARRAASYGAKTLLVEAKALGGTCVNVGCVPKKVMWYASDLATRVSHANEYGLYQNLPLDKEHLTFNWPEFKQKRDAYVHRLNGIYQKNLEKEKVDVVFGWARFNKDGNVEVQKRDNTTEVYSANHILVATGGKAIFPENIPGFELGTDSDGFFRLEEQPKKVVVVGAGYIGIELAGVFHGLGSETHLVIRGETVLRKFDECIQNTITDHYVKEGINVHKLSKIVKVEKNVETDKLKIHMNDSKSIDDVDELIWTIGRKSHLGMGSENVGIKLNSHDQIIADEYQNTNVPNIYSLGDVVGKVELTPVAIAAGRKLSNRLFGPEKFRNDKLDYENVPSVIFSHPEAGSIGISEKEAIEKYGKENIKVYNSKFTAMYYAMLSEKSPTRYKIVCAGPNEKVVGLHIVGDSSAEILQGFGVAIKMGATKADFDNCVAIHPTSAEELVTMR
Method: To determine in vitro yeast GR activity, compounds of concentrations 1-100 μM were incubated with 20 nM yeast GR and 200 μM NADPH in a volume of 100 μl phosphate buffer (0.1 M sodium phosphate, 2 mM EDTA pH 7.5) for 1 h at room temperature. At the end of the incubation, 100 μl of […] GSSG (final concentration 500 μM) and 200 μM NADPH in phosphate buffer was added to each well. NADPH consumption was monitored by measurement of absorbance at 340 nm using the VersaMax microplate reader. The results were calculated based on decrease in absorbance in the initial 90 s and expressed as a percentage of the enzyme activity of the DMSO-treated sample. For determination of cellular GR activity, 25 μg of cell lysate was mixed with a solution of GSSG and NADPH in phosphate buffer to a final volume of 200 μl (final GSSG and NADPH concentrations 1 mM and 200 μM respectively). The enzyme activity was determined by measuring the decrease in absorbance at 340 nm for 10 min at 37°C and expressed as a percentage of the enzyme activity of that of the DMSO-treated sample.

MCF-7 cells = assay: MTT cell viability assay, MCF-7 cells; format: cell-based; settings: Homo sapiens, MCF7, 72 h, mean ± SD of 3 experiments; for GI50: read-out: GI50 (50% growth inhibition concentration), MCF-7 cells; for CC50: read-out: LC50 (50% lethal concentration), MCF-7 cells
Method: (§1) HCT 116 and MCF-7 cells were seeded in 96-well plates at a density of 1 × 10^4 cells/well and allowed to grow for 20-24 h before addition of test compounds. DMSO stocks of indolin-2-one compounds were serially diluted in medium each time an assay was performed. Cell viability was determined at the time of compound addition (time 0) and after 72 h of compound treatment by reduction of 3-(4,5-dimethylthiazol-2-yl)-2,5-diphenyltetrazolium bromide (MTT) by dehydrogenases in viable cells. MTT was added into each well (final concentration 400 μg/ml) and the plates were incubated for 4 h at 37°C. The supernatants were aspirated and upon solubilization of the formed formazan crystals in DMSO:glycine buffer pH 10.5 (ratio 4:1), absorbance at 550 nm was measured. 50% growth inhibition concentrations (GI50) and 50% lethal concentrations (LC50) values were calculated.

HCT 116 cells = assay: MTT cell viability assay, HCT 116 cells; format: cell-based; settings: Homo sapiens, 72 h, mean ± SD of 3 experiments; for GI50: read-out: GI50 (50% growth inhibition concentration), HCT 116 cells
Method: as §1

## CC(=O)C=C1C(=O)N(C)c2ccccc21 [Compound 1, 1-methyl-3(2-oxopropylidene)indolin-2-one]
Recombinant rat TrxR
  IC50: 22.1 ± 1.8 µM
Bovine GPx
  bovine GPx activity: uninhibited
Yeast GR
  yeast GR activity: uninhibited
MCF-7 cells
  GI50: 15.1 ± 4.1 µM
  CC50: 27.6 ± 0.4 µM
HCT 116 cells
  GI50: 11.8 ± 3.3 µM

## CCCCN1C(=O)/C(=C/C(C)=O)c2ccccc21 [Compound 4]
Recombinant rat TrxR
  IC50: 8.6 ± 0.9 µM
Bovine GPx
  bovine GPx activity: uninhibited
Yeast GR
  yeast GR activity: uninhibited
MCF-7 cells
  GI50: 6.4 ± 1.5 µM
  CC50: 22.4 ± 3.6 µM
HCT 116 cells
  LC50 (50% lethal concentration): 9.7 ± 0.2 µM
  GI50: 4.5 ± 0.9 µM

## CC(=O)/C=C1/C(=O)N(Cc2ccccc2)c2ccccc21 [Compound 5]
Recombinant rat TrxR
  IC50: 6.2 ± 1.7 µM
Bovine GPx
  bovine GPx activity: uninhibited
Yeast GR
  yeast GR activity: uninhibited
MCF-7 cells
  GI50: 4.5 ± 0.6 µM
  CC50: 9.6 ± 0.2 µM
HCT 116 cells
  LC50 (50% lethal concentration): 9.4 ± 0.3 µM
  GI50: 3.2 ± 0.1 µM

## CN1C(=O)/C(=C/C(=O)c2ccccc2)c2ccccc21 [Compound 6]
Recombinant rat TrxR
  IC50: 14.7 ± 3.2 µM
Bovine GPx
  bovine GPx activity: uninhibited
Yeast GR
  yeast GR activity: uninhibited
MCF-7 cells
  GI50: 14 ± 3.7 µM
  CC50: 27.1 ± 0.5 µM
HCT 116 cells
  LC50 (50% lethal concentration): 27.2 ± 2.4 µM
  GI50: 8.5 ± 0.8 µM

Source: publication PMC5130005, “Indolin-2-one compounds targeting thioredoxin reductase as potential anticancer drug leads” (Oncotarget, 2016)
